According to article PMC10266040 (Proceedings of the National Academy of Sciences of the …, 2023):
Residue numbers refer to the chain shown, from its start.

Legend:
[1] = biological target: T1, ETR1 (Arabidopsis thaliana, UniProt P49333, K91R); assay: saturable […]ethylene radioligand binding to yeast expressing the mutant
T1 sequence (P49333 1-738 K91R): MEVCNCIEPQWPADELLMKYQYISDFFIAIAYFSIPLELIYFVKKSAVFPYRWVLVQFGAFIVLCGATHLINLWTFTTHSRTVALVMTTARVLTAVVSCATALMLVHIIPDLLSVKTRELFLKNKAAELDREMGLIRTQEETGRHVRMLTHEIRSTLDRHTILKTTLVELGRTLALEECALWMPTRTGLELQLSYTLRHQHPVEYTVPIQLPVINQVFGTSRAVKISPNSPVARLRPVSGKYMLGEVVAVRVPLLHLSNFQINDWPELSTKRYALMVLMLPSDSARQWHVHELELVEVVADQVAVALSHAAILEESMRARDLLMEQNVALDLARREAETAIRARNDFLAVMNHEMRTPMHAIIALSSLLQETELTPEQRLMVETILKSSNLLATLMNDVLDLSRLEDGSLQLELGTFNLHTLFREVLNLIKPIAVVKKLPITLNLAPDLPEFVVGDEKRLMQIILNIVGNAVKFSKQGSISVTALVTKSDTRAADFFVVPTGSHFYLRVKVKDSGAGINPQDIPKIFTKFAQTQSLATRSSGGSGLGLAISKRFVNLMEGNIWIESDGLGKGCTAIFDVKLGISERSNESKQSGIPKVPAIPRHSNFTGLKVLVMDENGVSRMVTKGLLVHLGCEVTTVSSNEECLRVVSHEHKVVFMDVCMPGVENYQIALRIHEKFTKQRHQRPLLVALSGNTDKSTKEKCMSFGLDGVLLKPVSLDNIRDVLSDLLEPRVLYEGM

[2] = biological target: T2, ETR1 (Arabidopsis thaliana, UniProt P49333, K91M); assay: as above
T2 sequence (P49333 1-738 K91M): T1 sequence (P49333 1-738 K91R) with R91M

C=C [ethylene]
% of wildtype binding [1]: 63 % of wildtype binding | % of wildtype binding [2]: ~ 6 % of wildtype binding
